From patent US20190255091A1, “RNAi AGENTS FOR [sequence] B VIRUS INFECTION” (priority 2016, published 2019)
“And” between values parts separate entries of the source, which are not always exact repeats. Equal values may be shown once.

Experiments:
Type in all cases: in vivo
[1] = tested on: HBV genotype C; experiment: Serum HBsAg levels in HBV-infected humanized FRG model mice; conditions: Group A: daily oral 0.01 mg/kg Entecavir, PBS (no RNAi agent), individual mouse
Source text: (§1) For this study, Male FRG® (genotype Fah−/−/Rag2−/−/Il2rg−/− triple knockout mice on a C57BL/6 background (Yecuris) were transplanted with human hepatocytes when they were 1-2 months old. The human hepatocytes were allowed to repopulate the liver for approximately 6 months with periodic NTBC treatment to discourage growth of mouse hepatocytes. At 9 months of age the mice were given an intravenous inoculation of 4×10^8 genomes/kg HBV genotype C, which infected the human hepatocytes. After 2-3 months, serum HBV DNA levels reached a plateau indicating the human hepatocytes were maximally infected (mouse hepatocytes cannot be infected by HBV). Mice were one year old at the start of treatment with HBV RNAi agents, thus nearing the end of their life span.
(§2) Pre-treatment serum samples were taken on day −10 and day −3. Beginning on day 1, each mouse was administered an oral daily gavage with 0.01 mg/kg Entecavir dissolved in water to inhibit HBV replication. Daily dosing of Entecavir continued until the day mice were euthanized. Entecavir administration was expected to reduce serum HBV DNA in chronically infected human patients, but not reduce HBsAg.
(§3) Each mouse was also given a subcutaneous administration of 100 μl per 20 grams body weight containing the amount of HBV RNAi agent(s) formulated in phosphate buffered saline, or an equal volume of phosphate buffered saline without an HBV RNAi agent, on day 1 and on day 29 (if still alive on day 29), pursuant to the schedule as set forth in Table 47, directly above. […] The injections were performed between the skin and muscle (i.e. subcutaneous injections) into the loose skin over the neck and shoulder area.
Serum was collected on day 8, day 15, day 22, day 29, day 36, and day 40 and serum Hepatitis B surface antigen (HBsAg) levels were determined pursuant to the procedure set forth in Example 2, above.

[2] = tested on: HBV genotype C; experiment: Serum HBV DNA levels in HBV-infected humanized FRG model mice
Source text: as §1, §2, §3
Additionally, serum HBV DNA levels were determined from serum samples collected on days −10, −3, 8, 15, 22, 29, 36, and 40, pursuant to the procedure set forth in Example 2, above.

[3] = tested on: Hepatitis B Virus (HBV); experiment: Serum HBeAg levels in pHBV model mice (ELISA); conditions: 0.8 mg/kg, injection on day 1 and day 22, Example 16
Source text: (§4) Six to eight-week-old female NOD.CB17-Prkdscid/NcrCrl (NOD-SCID) mice were transiently transfected in vivo with MC-HBV1.3 by hydrodynamic tail vein injection (Yang P L et al. “Hydrodynamic injection of viral DNA: a mouse model of acute hepatitis B virus infection,” PNAS USA 2002 Vol. 99: p. 13825-13830), administered 30 to 45 days prior to administration of an HBV RNAi agent or control. MC-HBV1.3 is a plasmid-derived minicircle that contains the same terminally redundant human hepatitis B virus sequence HBV1.3 as in plasmid pHBV1.3 and in the HBV1.3.32 transgenic mice (GenBank accession #V01460) (Guidotti L G et al., “High-level hepatitis B virus replication in transgenic mice,” J Virol 1995 Vol. 69, p 6158-6169.). 5 or 10 μg MC-HBV1.3 in Ringer's Solution in a total volume of 10% of the animal's body weight was injected into mice via tail vein to create pHBV model of chronic HBV infection. The solution was injected through a 27-gauge needle in 5-7 seconds as previously described (Zhang G et al., “High levels of foreign gene expression in hepatocytes after tail vein injection of naked plasmid DNA.” Human Gene Therapy 1999 Vol. 10, p 1735-1737.). At pre-dose (either day 1 pre-dose, day −1, or day −2), Hepatitis B surface antigen (HBsAg) HBsAg expression levels in serum were measured by ELISA and the mice were grouped according to average HBsAg expression levels.
(§5) HBV expression levels were normalized to pre-administration expression levels and to control mice injected with phosphate buffered saline (“PBS”).
HBeAg analysis was performed with the HBeAg enzyme linked immunosorbent assay (ELISA) as described by the manufacturer (DiaSorin) using serum diluted 4- to 20-fold in 5% nonfat dry milk. The amount of antigen was determined in the linear range of the assay and quantitated against HBeAg protein standards (Fitzgerald Industries International, catalog #30-AH18, Acton, Mass.).
HBeAg expression for each animal was normalized to the control group of mice injected with PBS in order to account for the non-treatment related decline in expression of MC-HBV1.3. For evaluation of HBeAg in serum, HBeAg is analyzed from pooled group or subgroup serum samples. First, the HBeAg level for each pooled group or subgroup was divided by the pre-treatment level of expression in the same group or subgroup in order to determine the ratio of expression “normalized to pre-treatment”. Expression at a specific time point was then normalized to the control group by dividing the “normalized to pre-treatment” ratio for a group or subgroup by the average “normalized to pre-treatment” ratio of all samples from the normal PBS control group.

[4] = tested on: Hepatitis B Virus (HBV); experiment: Serum HBsAg levels in pHBV model mice (ELISA); set-up: key to Average HBsAg levels normalized to pre-treatment (day −1) and PBS control / Average HBsAg levels normalized to pre-treatment and PBS control: fraction of pre-treatment level, relative to PBS control mean; conditions: for Average HBsAg normalized to pre-treatment and PBS control: 2.0 mg/kg, single s.c. injection on day 1
Source text: as §4, §5
Mice were anesthetized with 2-3% isoflurane and blood samples were collected from the submandibular area into serum separation tubes (Sarstedt AG & Co., Nümbrecht, Germany). Blood was allowed to coagulate at ambient temperature for 20 min. The tubes were centrifuged at 8,000×g for 3 min to separate the serum and stored at 4° C.
Serum was collected and diluted 10 to 8000-fold in PBS containing 5% nonfat dry milk. […] HBsAg levels were determined with a GS HBsAg EIA 3.0 kit (Bio-Rad Laboratories, Inc., Redmond, Wash.) as described by the manufacturer. Recombinant HBsAg protein, ayw subtype, also diluted in nonfat milk in PBS, was used as a primary standard (Aldevron).
HBsAg expression for each animal was normalized to the control group of mice injected with PBS in order to account for the non-treatment related decline in expression of MC-HBV1.3. First, the HBsAg level for each animal at a time point was divided by the pre-treatment level of expression in that animal in order to determine the ratio of expression “normalized to pre-treatment”. Expression at a specific time point was then normalized to the control group by dividing the “normalized to pre-treatment” ratio for an individual animal by the average “normalized to pre-treatment” ratio of all mice in the normal PBS control group.

[5] = tested on: Hepatitis B Virus (HBV); experiment: Serum HBV DNA levels in pHBV model mice (qPCR); conditions: 0.8 mg/kg, injection on day 1 and day 22, Example 16
Source text: as §4, §5
Equal volumes of serum from mice in a group or subgroup were pooled to a final volume of 100 μL. DNA was isolated from serum samples using the QIAamp MinElute Virus Spin Kit (Qiagen, Valencia, Calif.) following the manufacturer's instructions. Sterile 0.9% saline was added to each sample to a final volume of 200 μL. Serum samples were added to tubes containing buffer and protease. Carrier RNA was added to aid in the isolation of small amounts of DNA. […] After incubating 15 min at 56° C., nucleic acids were precipitated from the lysates with ethanol and the entire solution applied to a column. After washing, the samples were eluted into a volume of 50 μL Buffer AVE.
The number of copies of HBV genomes in DNA isolated from the pHBV mouse model serum was determined by qPCR. Plasmid pSEAP-HBV353-777, encoding a short segment of the HBV genome within the S gene (bases 353-777 of GenBank accession #V01460), was used to create a six log standard curve. Samples with recovery of DNA below 2 standard deviations from the average, based on detection of pHCR/UbC-SEAP were omitted. TaqMan chemistry-based primers and probes with fluor/ZEN/IBFQ are utilized.
qPCR assays were performed on a 7500 Fast or StepOne Plus Real-Time PCR system (Life Technologies). For evaluation of HBV DNA in serum, DNA was isolated from singlet or duplicate purification steps from pooled group serum samples. Quantitations of HBV DNA and recovery control plasmid were determined by qPCR reactions performed in triplicate. The probes to quantitate HBV and pHCR/UbC-SEAP were included in each reaction.

C=C1[C@H](CO)[C@@H](O)C[C@@H]1n1cnc2c(=O)[nH]c(N)nc21 [Entecavir]
HBsAg levels normalized to pre-treatment (day −3), Day 8 ([1]; Day 8): 0.830 and 1.303
HBsAg levels normalized to pre-treatment (day −3), Day 15 ([1]; Day 15): 0.828 and 1.328
HBsAg levels normalized to pre-treatment (day −3), Day 22 ([1]; Day 22): 0.932
HBsAg levels normalized to pre-treatment (day −3), Day 29 ([1]; Day 29): 0.858
HBsAg levels normalized to pre-treatment (day −3), Day 36 ([1]; Day 36): 1.107
viral replication (serum HBV DNA) ([2]; Example 18, 0.01 mg/kg oral daily gavage, absence and presence of HBV RNAi agents): reduced viral replication
Serum HBV DNA levels normalized to the average of pre-treatment day −10 and day −3, Day 8 ([2]; Group A: daily oral 0.01 mg/kg Entecavir, PBS (no RNAi agent), individual mouse, Day 8): 0.072 and 0.130
Serum HBV DNA levels normalized to the average of pre-treatment day −10 and day −3, Day 15 ([2]; Group A: daily oral 0.01 mg/kg Entecavir, PBS (no RNAi agent), individual mouse, Day 15): 0.038 and 0.075
Serum HBV DNA levels normalized to the average of pre-treatment day −10 and day −3, Day 22 ([2]; Group A: daily oral 0.01 mg/kg Entecavir, PBS (no RNAi agent), individual mouse, Day 22): 0.015
Serum HBV DNA levels normalized to the average of pre-treatment day −10 and day −3, Day 29 ([2]; Group A: daily oral 0.01 mg/kg Entecavir, PBS (no RNAi agent), individual mouse, Day 29): 0.027
Serum HBV DNA levels normalized to the average of pre-treatment day −10 and day −3, Day 36 ([2]; Group A: daily oral 0.01 mg/kg Entecavir, PBS (no RNAi agent), individual mouse, Day 36): 0.060

AD05070: HBV RNAi agent duplex AM06606-AS/AM06605-SS (antisense UACCAAUUUAUGCCUACAGCG; sense CGCUGUAGGCAUAAAUUGGUA; chemistry not fully specified)
Average HBeAg levels normalized to pre-treatment and PBS control ([3]; Day 8): 0.634
Average HBeAg levels normalized to pre-treatment and PBS control ([3]; Day 15): 0.594 ± 0.082
Average HBeAg levels normalized to pre-treatment and PBS control ([3]; Day 22): 0.840 ± 0.152
Average HBeAg levels normalized to pre-treatment and PBS control ([3]; Day 29): 0.271 ± 0.029
Average HBsAg levels normalized to pre-treatment and PBS control ([4]; Day 8, 0.8 mg/kg, injection on day 1 and day 22, Example 16): 0.446 ± 0.143
Average HBsAg levels normalized to pre-treatment and PBS control ([4]; Day 8, 0.8 mg/kg, single s.c. injection day 1, Example 8): 0.355 ± 0.099 and 0.271 ± 0.058
Average HBsAg normalized to pre-treatment and PBS control ([4]; Day 8, Example 15): 0.081 ± 0.026
Average HBsAg levels normalized to pre-treatment and PBS control ([4]; Day 14, 0.8 mg/kg, single s.c. injection day 1, Example 8): 0.366 ± 0.069 and 0.334 ± 0.060
Average HBsAg levels normalized to pre-treatment and PBS control ([4]; Day 14, 4.0 mg/kg, single s.c. injection day 1, Example 8): 0.069 ± 0.039 and 0.079 ± 0.047
Average HBsAg levels normalized to pre-treatment and PBS control ([4]; Day 15, 0.8 mg/kg, injection on day 1 and day 22, Example 16): 0.376 ± 0.120
Average HBsAg normalized to pre-treatment and PBS control ([4]; Day 15, Example 15): 0.127 ± 0.031
Average HBsAg levels normalized to pre-treatment and PBS control ([4]; Day 21, 0.8 mg/kg, single s.c. injection day 1, Example 8): 0.464 ± 0.055
Average HBsAg levels normalized to pre-treatment and PBS control ([4]; Day 21, 4.0 mg/kg, single s.c. injection day 1, Example 8): 0.145 ± 0.082
Average HBsAg levels normalized to pre-treatment and PBS control ([4]; Day 22, 0.8 mg/kg, injection on day 1 and day 22, Example 16): 0.474 ± 0.149
Average HBsAg normalized to pre-treatment and PBS control ([4]; Day 22, Example 15): 0.223 ± 0.057
Average HBsAg levels normalized to pre-treatment and PBS control ([4]; Day 28, 0.8 mg/kg, single s.c. injection day 1, Example 8): 0.624 ± 0.053
Average HBsAg levels normalized to pre-treatment and PBS control ([4]; Day 28, 4.0 mg/kg, single s.c. injection day 1, Example 8): 0.135 ± 0.061
Average HBsAg levels normalized to pre-treatment and PBS control ([4]; Day 29, 0.8 mg/kg, injection on day 1 and day 22, Example 16): 0.338 ± 0.123
Average HBsAg normalized to pre-treatment and PBS control ([4]; Day 29, Example 15): 0.330 ± 0.112
Average HBsAg normalized to pre-treatment and PBS control ([4]; Day 36, Example 15): 0.472 ± 0.121
Average HBsAg normalized to pre-treatment and PBS control ([4]; Day 43, Example 15): 0.515 ± 0.126
Average HBsAg normalized to pre-treatment and PBS control ([4]; Day 50, Example 15): 0.689 ± 0.167
knockdown of HBsAg compared to PBS control ([4]; Example 15, administered alone or in combination with AD04872, across each of the time points measured): significant knockdown of HBsAg
Average Serum HBV DNA levels normalized to pre-treatment and PBS control ([5]; Day 8): 1.124 ± 0.142
Average Serum HBV DNA levels normalized to pre-treatment and PBS control ([5]; Day 15): 0.742 ± 0.127
Average Serum HBV DNA levels normalized to pre-treatment and PBS control ([5]; Day 22): 0.807 ± 0.192
